Results: PubChem BioAssay (NCI)
Several values for one entry are separate records, joined by “and”; a condition that tells them apart may be missing. Identical values can stand only once.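 1) Cells in 96-well plates. 2) Compound, 48 h, 5 concentrations. 3) Linear interpolation between surrounding doses. 4) Unreached endpoint = highest concentration. GI50 is the concentration that inhibits growth by half. The concentration for full growth arrest is given as TGI.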

Experiments:
Test in all cases: NCI-60 cell line screen, 48 h
A498 renal = system: A498 renal
COLO 205 colon = system: COLO 205 colon
HOP-92 NSCLC = system: HOP-92 NSCLC
IGROV1 ovarian = system: IGROV1 ovarian
KM12 colon = system: KM12 colon
M14 melanoma = system: M14 melanoma
OVCAR-8 ovarian = system: OVCAR-8 ovarian
SF-268 CNS = system: SF-268 CNS
SNB-19 CNS = system: SNB-19 CNS
CAKI-1 renal = system: CAKI-1 renal

Row | SMILES | GI50 (A498 renal) | TGI (A498 renal) | GI50 (COLO 205 colon) | TGI (COLO 205 colon) | GI50 (HOP-92 NSCLC) | TGI (HOP-92 NSCLC) [µM] | GI50 (IGROV1 ovarian) | TGI (IGROV1 ovarian) | GI50 (KM12 colon) | TGI (KM12 colon) | GI50 (M14 melanoma) | TGI (M14 melanoma) | GI50 (OVCAR-8 ovarian) | TGI (OVCAR-8 ovarian) | GI50 (SF-268 CNS) | TGI (SF-268 CNS) | GI50 (SNB-19 CNS) | TGI (SNB-19 CNS) | TGI (CAKI-1 renal) [µM] | GI50 (CAKI-1 renal) [µM]
1 | CCSc1ccc([C@@H]2[C@@H](N)C(=O)N2c2cc(OC)c(OC)c(OC)c2)cc1 | 0.0563 µM | 8.29 µM | 0.0513 µM | 11.7 µM | 30.2 µM | > 100 | 1.43 µM | > 100 µM | 0.0533 µM | > 100 µM | 0.0456 µM | > 100 µM | 0.176 µM | > 100 µM | 0.0872 µM | > 100 µM | 0.0715 µM | > 100 µM | – | –
2 | O=c1ccn(C2(CO)C=C(CO)C(O)C2O)c(=O)[nH]1 (stereo not drawn) | – | > 25.7 µM | – | > 25.7 µM | – | – | – | > 25.7 µM | – | > 25.7 µM | – | > 25.7 µM | – | > 25.7 µM | – | > 25.7 µM | – | > 25.7 µM | > 25.7 | –
3 | CC(C)C[CH2][Ge]([CH2]CC(C)C)([CH2]CC(C)C)[CH2]CC(C)C | > 100 µM | > 100 µM | > 100 µM | > 100 µM | – | – | > 100 µM | > 100 µM | > 100 µM | > 100 µM | > 100 µM | > 100 µM | > 100 µM | > 100 µM | > 100 µM | > 100 µM | > 100 µM | > 100 µM | > 100 | > 100
4 | O=S1c2ccccc2NC(c2ccc3ccccc3c2)CC1c1ccccc1 (stereo not drawn) | – | – | – | 74.4 µM | – | – | – | 40.5 µM | – | 41.7 µM | – | > 100 µM | – | 57 µM | – | > 100 µM | – | > 100 µM | 79 | –
5 | Cc1cn([C@H]2C[C@H](O)[C@@H](CO)O2)c(=O)nc1N | – | > 100 µM | – | > 100 µM | – | – | – | > 100 µM | – | > 100 µM | – | > 100 µM | – | > 100 µM | – | > 100 µM | – | > 100 µM | > 100 | –
6 | CCCC(=O)c1ccc(=O)n(C)c1 | – | – | – | > 100 µM | – | > 100 | – | > 100 µM | – | > 100 µM | – | > 100 µM | – | > 100 µM | – | > 100 µM | – | > 100 µM | > 100 | –
7 | c1ccc2cc(C[n+]3ccn(Cc4ccc5ccccc5n4)c3)ccc2c1 | 0.492 µM and 2.49 µM | 3.9 µM and 24.1 µM | 0.239 µM and 1.72 µM | 0.738 µM and 5.07 µM | 0.184 µM and 1.66 µM | – | 0.481 µM and 2.22 µM | 3.19 µM and 9.03 µM | 0.384 µM and 2.25 µM | 1.74 µM and 7.56 µM | 0.727 µM and 3.26 µM | 4.55 µM and 17.1 µM | 0.754 µM and 3.72 µM | 10.5 µM and 15 µM | 0.434 µM and 3.79 µM | 11.3 µM and 18.3 µM | 0.338 µM and 3.05 µM | 11 µM and 13.2 µM | – | –
8 | O=C(Nc1ccc(Nc2ccncc2)cc1)c1ccc(Nc2ccnc3ccc([N+](=O)[O-])cc23)cc1[N+](=O)[O-] | 24.2 µM | > 62.2 µM | 17.5 µM | > 100 µM | 24.6 µM | > 74.2 | 14.1 µM | > 83.7 µM | 6.47 µM | > 100 µM | 21.9 µM | > 100 µM | 13 µM | 45.2 µM | – | – | 5.61 µM | > 100 µM | > 83.2 | > 39.6
9 | Oc1ccc(Oc2cnc3cc(Cl)ccc3n2)cc1 | 25.4 µM | > 100 µM | 92.4 µM | > 100 µM | 37.3 µM | > 100 | – | – | 13.4 µM | > 100 µM | 46.5 µM | > 100 µM | > 100 µM | > 100 µM | 14.8 µM | > 100 µM | 91.6 µM | > 100 µM | 68.2 | 21.8
10 | COc1cnc2c(c1)C(=O)c1c-2n(CCCNCCN2CCOCC2)c(=O)c2cc([N+](=O)[O-])ccc12 | – | – | 0.297 µM | 3.07 µM | 0.866 µM | 22.8 | 0.422 µM | 6.76 µM | 0.399 µM | 3.57 µM | 0.0689 µM | 1.52 µM | 0.174 µM | 10.2 µM | 0.0818 µM | 13.3 µM | 0.11 µM | 5.2 µM | 7.31 | 0.0433
11 | O=C(Oc1ccc2c(-c3ccccc3)c(C(=O)Nc3ccc(Cl)cc3)c(=O)oc2c1)c1ccccc1 | – | – | – | > 100 µM | – | – | – | > 100 µM | – | > 100 µM | – | > 100 µM | – | > 100 µM | – | – | – | > 100 µM | – | –
12 | O=C(O)c1cn(C2CC2)c2cc(N3CCNCC3)c(F)cc2c1=O | – | – | > 100 µM | > 100 µM | – | – | > 100 µM | > 100 µM | > 100 µM | > 100 µM | > 100 µM | > 100 µM | > 100 µM | > 100 µM | – | – | – | – | > 100 | > 100
13 | Fc1ccc([C@@H]2CCNC[C@H]2COc2ccc3c(c2)OCO3)cc1 | 5.52 µM | 19.2 µM | 1.91 µM | 3.69 µM | 1.62 µM | 12.8 | 7.05 µM | 20.3 µM | 3.86 µM | 14.1 µM | 2.93 µM | 11.1 µM | – | – | 10.8 µM | 23.5 µM | 12 µM | 25.4 µM | 25.3 | 12.1
14 | CN(C(=O)C12C3C4C1C1C2C3C41C(O)C(C)(C)C)C(C)(C)C (stereo not drawn) | – | > 100 µM | – | > 100 µM | – | – | – | > 100 µM | – | > 100 µM | – | > 100 µM | – | > 100 µM | – | > 100 µM | – | > 100 µM | > 100 | –
15 | CC(=O)OCCOCNC(=S)N/N=C(\C)c1cccs1 | – | > 100 µM | – | > 100 µM | – | – | – | > 100 µM | – | > 100 µM | – | > 100 µM | – | > 100 µM | – | > 100 µM | – | > 100 µM | – | –
16 | c1ccc2c(c1)Sc1ccccc1N2C1CN2CCC1CC2 (stereo not drawn) | – | 22.5 µM | – | 34.5 µM | – | – | – | 42.3 µM | – | 33.9 µM | – | – | – | 32.5 µM | – | 63 µM | – | 46.7 µM | 33.9 | –
17 | CN1C(=O)CCC1c1ccc2c(c1)oc(=O)n2C (stereo not drawn) | – | – | – | > 100 µM | – | – | – | > 100 µM | – | > 100 µM | – | > 100 µM | – | > 100 µM | – | > 100 µM | – | > 100 µM | > 100 | –
18 | ClC1c2ccccc2C2(c3ccccc3)OOC1(c1ccccc1)O2 (stereo not drawn) | – | 4.45 µM | – | 4.58 µM | – | 0.987 | – | – | – | 3.63 µM | – | 2.76 µM | – | 5.16 µM | – | 4.19 µM | – | 3.21 µM | 6.19 | –
19 | CNc1ccc([N+](=O)[O-])c2c(NCCCN(C)C)ccnc12 | – | – | – | > 100 µM | – | – | – | > 100 µM | – | > 100 µM | – | > 100 µM | – | > 100 µM | – | > 100 µM | – | > 100 µM | > 100 | –
